PubChem BioAssay AID449764 (Southern Research Specialized Biocontainment Screening …, 2010)
pIC50: −log10 of the molar value.

System: Mycobacterium tuberculosis H37Rv growth inhibition, no glycerol
Assay: Confirmatory growth inhibition assay, Mycobacterium tuberculosis H37Rv, absence of glycerol (AID 449764);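 also: growth read after 7 days of incubation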
Conditions: for IC90: measured here: IC90 growth inhibition

SMILES | pIC50 | IC90 [µM]
Cc1cc(-c2nnc3n2CCCCC3)c(C)n1-c1ccccc1 | 4.34 | 73.8
CCOc1cc2c3c(c1)C1(C(=O)N3C(C)(C)CC2C)C(C#N)=C(N)N2C(=C1C#N)Nc1ccccc12 (centres undefined) | 4.42 | > 100
O=C(O)C1CC=CCC1C(=O)N1CCN(c2nc(-c3ccccc3Cl)c3cc(Br)ccc3n2)CC1 (centres undefined) | 4.36 | 68.8
COc1cc(C(=O)/C=C/c2cccnc2)c([N+](=O)[O-])cc1OC | 4.76 | 26.2
Cc1c(Cl)cccc1-c1ccc(CNCc2ccccn2)o1 | 5.33 | 13.6
O=c1[nH]c2ccccc2c2oc(CCl)nc12 | 5.13 | 22.1
Cc1ccc(S(=O)(=O)n2ccc3c(OCCOCCNCc4ccc(F)cc4)cccc32)cc1 | 4.64 | 26
Cc1ccc(-n2nc3c(N4CCC(C(=O)NCc5ccccc5C)CC4)nnc(C)c3c2C)cc1 | 4.14 | > 100
Cc1cc(C)c2nc(-c3ccncc3)cc(C(=O)N3CCN(Cc4ccccc4Cl)CC3)c2c1 | 4.50 | 43.7
CCNC(=S)NN=C1c2ccccc2-c2ccccc21 | 4.96 | > 25
Cc1cc(C)c2oc(-c3ccc(C)c(NC(=S)NC(=O)/C=C/c4ccco4)c3)nc2c1 | 4.11 | > 100
Cc1noc(C)c1COc1ccc(C(=O)OCC(=O)NC23CC4CC(CC(C4)C2)C3)cc1 | 4.62 | 35.5
Cc1ccc(-c2csc3nc4c5ccccc5c(NCCCN5CCOCC5)nn4c(=O)c23)cc1 | 4.54 | 39.8
Cc1ccc(C(=O)N/N=C(/CC(=O)c2cccs2)C(F)(F)F)cc1 | 5.65 | 3.18
CCOC(=O)C1=C(C)Nc2nc(SCC(=O)OC)nn2C1c1cc(F)cc(F)c1 (centres undefined) | 5.00 | 12.5
C=CCn1cccc(/C=C/C(=O)c2ccc(C(C)(C)C)cc2)c1=S | 4.17 | 86.8
O=C(CCn1c(=O)c2cccn2c2cccnc21)N1CCN(c2cccc(Cl)c2)CC1 | 4.51 | 46.9
Cc1ccc(S(=O)(=O)NC(CC(C)C)C(=O)N2CCN(C/C=C/c3ccccc3)CC2)cc1 (centres undefined) | 4.18 | 90.2
O=[N+]([O-])c1cc(Cl)c(O)c(-[n+]2c(-c3ccccc3)cc(-c3ccccc3)cc2-c2ccccc2)c1 | 5.33 | 7.3
CCCCCCOC(=O)C(C#N)c1nc2ccccc2nc1N1CCN(CC)CC1 (centres undefined) | 4.67 | 32.3
COc1cc2c(cc1OC)CN(CCC(=O)c1ccc(Br)cc1)CC2 | 4.63 | 26.7

SMILES | pIC50 | IC90 [µM]
CCc1nnc(NS(=O)(=O)c2ccc(N/C=C\C(=O)c3cccc(OC)c3)cc2)s1 | 4.41 | 53
CC(C)CCC[C@@H](C)[C@H]1CC[C@H]2[C@@H]3C(=O)C=C4C[C@@H](O)CC[C@]4(C)[C@H]3CC[C@]12C | 4.41 | 62.9
Cc1ccc(N(CCC#N)C(=O)CCl)cc1C | 5.29 | 8.42
O=C(N/N=C/c1ccc([N+](=O)[O-])o1)c1sc2ccccc2c1Cl | 5.24 | 8.72
COc1ccc(C2CC(=O)c3cnc(Nc4cc(C)cc(C)c4)nc3C2)cc1 (centres undefined) | 4.69 | 45.2
O=C1C(=O)c2ccccc2-c2ccccc21 | 5.11 | 10.6
COc1ccc(C2Oc3ccccc3C3=C2C(c2cccs2)n2ncnc2N3)cc1 (centres undefined) | 4.10 | > 100
Cc1nc(N2CCN(c3ccccn3)CC2)c2c(C)c(C(=O)N3CCN(c4ccc(F)cc4)CC3)sc2n1 | 4.95 | 12.9
CCOC(=O)c1c(NC(=O)CSc2nc3ccc(OC)cc3[nH]2)sc2c1CC(C)(C)NC2(C)C | 4.40 | 53.7
Cc1ccc(NC(=O)C2C3/C=C\CCCCC32)cc1C (centres undefined) | 5.53 | 4.49
CCCOc1ccc2oc(=O)c3c(c2c1)CCCN3C(=O)CN1CCN(c2ncccn2)CC1 | 4.14 | > 100
CN1C(=O)N(C)c2ccc(C=O)c3cccc1c23 | 4.34 | 51.4
Cc1nc2ccc(OC(=O)c3ccccc3)cc2s1 | 4.06 | > 100
CCOC(=O)Oc1c(OC)cc(C(=O)O[C@@H]2C[C@@H]3CN4CCc5c([nH]c6cc(OC)ccc56)[C@H]4C[C@@H]3[C@H](C(=O)OC)[C@H]2OC)cc1OC | 4.58 | 39.1
Cc1ccc(-c2c[n+](CC(=O)N3c4ccccc4Sc4ccccc43)c3n2CCC3)cc1 | 4.64 | 26.1
Cc1c([N+](=O)[O-])cnc(Sc2ccccc2)c1[N+](=O)[O-] | 5.24 | 9.94
COC(=O)CCc1nc2c(C#N)c(-c3ccc(Cl)cc3)ccn2n1 | 5.57 | 5.22
CCCn1c(=N)n(CC(=O)c2ccc(OCC(=O)OC)cc2)c2ccccc21 | 4.70 | 35.9
C/C(=N\Nc1ccc(Cl)c(Cl)c1)c1ccc(-n2ccnc2)cc1 | 4.06 | 95.6
Cc1cc(N/N=C2/CCCc3ccccc32)nc2ccccc12 | 4.38 | 45.6
CN(/N=C/c1cc(Br)cc(Br)c1O)c1cccc(C(F)(F)F)n1 | 5.10 | 11.2
